The results in this text go back to patent publication US8501755B2, “Tetrahydropyridothienopyrimidine compounds and methods of use thereof” (Bayer Intellectual Property GmbH, priority 2006, dated 2013).

A value given as a limit tells only on which side of the number the result lay.

Common to all, as to type: cell-based
One test deals with A431 cells. Nature of the test: In vitro tumor cell proliferation assay (Cell Titer-Glo) in A431 cells. The conditions noted are these: Homo sapiens, A-431, 72 h, A431 human epidermoid carcinoma overexpressing HER1; 72 hours exposure; read-out: IC50, activities in A431 cell lines. A digest of the protocol: (§1)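 Viability after 72 h drug exposure at 37 °C was read as CellTiter-Glo ATP luminescence, giving IC50. Cells (2.5×10^3/well, RPMI + 10% FBS) were compound-treated one day post-seeding, 0.1% DMSO final: A431 overexpresses HER1, N87 overexpresses HER2 and HER1.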
(In general: ATP-based viability assays read luminescence as a measure of living cells.)

Another test relates to N87. Nature of the test: In vitro tumor cell proliferation assay (Cell Titer-Glo) in N87 cells. The conditions noted are these: N87 human gastric carcinoma overexpressing HER2 and HER1; 72 hours exposure; read-out: IC50, activities in N87 cell lines. In short, it runs like this:
as §1

Another test concerns H1975 cells. Put plainly: In vitro tumor cell proliferation assay (Cell Titer-Glo) in H1975 cells. The conditions noted are these: NCI-H1975; H1975 human NSCLC expressing mutant HER1 (L858R,T790M); 72 hours exposure; read-out: IC50, activities in H 1975 cell lines. In short, it runs like this: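 After 72 h compound exposure at 37° C (top 10 uM down to 64 pM, 0.1% DMSO), viability of EGFR L858R/T790M-mutant H1975 cells was read as ATP luminescence.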

For the molecule `C=C(CN(CC)CC)C(=O)N1CCc2c(sc3ncnc(Nc4ccc(OCc5ccccn5)c(Cl)c4)c23)C1` [Example 143, N-[3-chloro-4-(pyridin-2-ylmethoxy)phenyl]-7-{2-[(diethylamino)methyl]acryloyl}-5,6,7,8-tetrahydropyrido[4′,3′:4,5]thieno[2,3-d]pyrimidin-4-amine], the values for the IC50 with A431 cells, in the test with N87 and in the test on H1975 cells were 0.2 to 1 µM, less than 0.2 µM and 0.2 to 1 µM, respectively.

For `CN(C/C=C/C(=O)N1CCc2c(sc3ncnc(Nc4ccc5c(cnn5Cc5ccccc5)c4)c23)C1)C(C)(C)C` [Example 126, N-(1-benzyl-1H-indazol-5-yl)-7-{(2E)-4-[tert-butyl(methyl)amino]but-2-enoyl}-5,6,7,8-tetrahydropyrido [4′,3′:4,5]thieno[2,3-d]pyrimidin-4-amine], the IC50 in the test on A431 cells, with N87 and in the test with H1975 cells was less than 0.2 µM throughout.

On to `CN1CCC=C(C(=O)N2CCc3c(sc4ncnc(Nc5ccc(F)c(Cl)c5)c34)C2)C1` [Example 29, N-(3-chloro-4-fluorophenyl)-7-[(1-methyl-1,2,5,6-tetrahydropyridin-3-yl)carbonyl]5,6,7,8-tetrahydropyrido [4′,3′:4,5]thieno[2,3-d]pyrimidin-4-amine], for which the IC50 with A431 cells lay in the range of 1 to 10 µM; in the test on N87, 0.2 to 5 µM; with H1975 cells, 1 to 10 µM.

In the case of `O=C(/C=C/CN1CCOCC1)N1CCc2c(sc3ncnc(Nc4ccc(OCc5cccnc5)c(Cl)c4)c23)C1` [Example 89, N-[3-chloro-4-(pyridin-3-ylmethoxy)phenyI]-7-[(2E)-4-morpholin-4-ylbut-2-enoyl]-5,6,7,8-tetrahydropyrido [4′,3′:4,5]thieno[2,3-d]pyrimidin-4-amine], the IC50 in the test on A431 cells was 1 to 10 µM; in the test on N87 it was less than 0.2 µM; in the test with H1975 cells, 0.2 to 1 µM.

Consider `O=C(/C=C/CN(CCO)CCO)N1CCc2c(sc3ncnc(Nc4ccc(F)c(Cl)c4)c23)C1` [Example 32, 2,2′-{[(2E)-4-{4-[(3-chloro-4-fluorophenyl)amino]-5,8-dihydropyrido [4′,3′:4,5]thieno[2,3-d]pyrimidin-7(6H)-yl}-4-oxobut-2-en-1-yl]imino}diethanol], for which the results for the IC50 with A431 cells, in the test with N87 and with H1975 cells were 1 to 10 µM, less than 0.2 µM and 1 to 10 µM, respectively.

Regarding `CCOc1cccc(Nc2ncnc3sc4c(c23)CCN(C(=O)/C=C/CN(C)C)C4)c1` [Example 168, 7-[(2E)-4-(dimethylamino)but-2-enoyl]-N-(3-ethoxyphenyl)-5,6,7,8-tetrahydropyrido [4′,3′:4,5]thieno[2,3-d]pyrimidin-4-amine], the IC50 was 1 to 10 µM in the test with A431 cells, less than 0.2 µM with N87 and 1 to 10 µM in the test with H1975 cells.

Take `C#Cc1cccc(Nc2ncnc3sc4c(c23)CCN(C(=O)/C=C/CN2CCCCC2)C4)c1` [Example 20, N-(3-ethynylphenyl)-7-[(2E)-4-piperidin-1-ylbut-2-enoyl]-5,6,7,8-tetrahydropyrido [4′,3′:4,5]thieno[2,3-d]pyrimidin-4-amine]: the IC50 is less than 0.2 µM in the test with A431 cells, less than 0.2 µM in the test on N87 and 0.2 to 1 µM in the test with H1975 cells.

Take `CCN(C)C/C=C/C(=O)N1CCc2c(sc3ncnc(Nc4ccc(OCc5cccnc5)c(Cl)c4)c23)C1` [Example 90, N-[3-chloro-4-(pyridin-3-ylmethoxy)phenyl]-7-{(2E)-4-[ethyl(methyl)amino]but-2-enoyl}-5,6,7,8-tetrahydropyrido [4′,3′:4,5]thieno[2,3-d]pyrimidin-4-amine]: the IC50 in the test on A431 cells is 1 to 10 µM; in the test with N87 it was less than 0.2 µM; in the test on H1975 cells, 0.2 to 1 µM.

On to `CCN(C)C/C=C/C(=O)N1CCc2c(sc3ncnc(Nc4ccc(Cl)c(Cl)c4)c23)C1` [Example 190, N-(3,4-dichlorophenyl)-7-{(2E)-4-[ethyl(methyl)amino]but-2-enoyl}-5,6,7,8-tetrahydropyrido [4′,3:4,5]thieno[2,3-d]pyrimidin-4-amine], for which the IC50 was 0.2 to 1 µM in the test with A431 cells, less than 0.2 µM in the test on N87 and 0.2 to 1 µM in the test with H1975 cells.

Regarding `CC1CCCCN1C/C=C/C(=O)N1CCc2c(sc3ncnc(Nc4ccc(OCc5ccccn5)c(Cl)c4)c23)C1` (stereo not drawn) [Example 64], the IC50 in the test on A431 cells is 0.2 to 1 µM; in the test with N87, less than 0.2 µM; in the test with H1975 cells it was 0.2 to 1 µM.

Consider `C/C=C/C(=O)N1CCc2c(sc3ncnc(Nc4ccc(F)c(Cl)c4)c23)C1` [Example 23, 7-[(2E)-but-2-enoyl]-N-(3-chloro-4-fluorophenyl)-5,6,7,8-tetrahydropyrido [4′,3′:4,5]thieno[2,3-d]pyrimidin-4-amine], for which the IC50 lay within 1 to 10 µM with A431 cells, 0.2 to 5 µM in the test on N87 and 1 to 10 µM with H1975 cells.

Consider `C#Cc1cccc(Nc2ncnc3sc4c(c23)CCN(C(=O)C#CCCN2CCCCC2)C4)c1` [Example 141, N-(3-ethynylphenyl)-7-(5-piperidin-1-ylpent-2-ynoyl)-5,6,7,8-tetrahydropyrido [4′,3′:4,5]thieno[2,3-d]pyrimidin-4-amine], for which the IC50 in the test on A431 cells was 0.2 to 1 µM; in the test on N87, less than 0.2 µM; with H1975 cells, 0.2 to 1 µM.

`CN(C)C/C=C/C(=O)N1CCc2c(sc3ncnc(NCc4ccccc4)c23)C1` [Example 169, N-benzyl-7-[(2E)-4-(dimethylamino)but-2-enoyl]-5,6,7,8-tetrahydropyrido [4′,3′:4,5]thieno[2,3-d]pyrimidin-4-amine]: the IC50 in the test with A431 cells is 1 to 10 µM; with N87, less than 0.2 µM; in the test with H1975 cells it was 1 to 10 µM.

In the case of `Cc1cccc(COc2ccc(Nc3ncnc4sc5c(c34)CCN(C(=O)/C=C/CN(C)C(C)C)C5)cc2Cl)n1` [Example 77, N-{3-chloro-4-[(6-methylpyridin-2-yl)methoxy]phenyl}-7-{(2E)-4-[isopropyl(methyl)amino]but-2-enoyl}-5,6,7,8-tetrahydropyrido [4′,3′:4,5]thieno[2,3-d]pyrimidin-4-amine], the IC50 in the test on A431 cells is 1 to 10 µM; with N87, less than 0.2 µM; in the test on H1975 cells, 0.2 to 1 µM.

In the case of `CN(C)C/C=C/C(=O)N1CCc2c(sc3ncnc(Nc4ccc(Cl)c(F)c4)c23)C1` [Example 180, N-(4-chloro-3-fluorophenyl)-7-[(2E)-4-(dimethylamino)but-2-enoyl]-5,6,7,8-tetrahydropyrido [4′,3′:4,5]thieno[2,3-d]pyrimidin-4-amine], the IC50 in the test with A431 cells is 0.2 to 1 µM; in the test on N87 it was less than 0.2 µM; in the test with H1975 cells it was 1 to 10 µM.

`Cc1cccc(COc2ccc(Nc3ncnc4sc5c(c34)CCN(C(=O)/C=C/CN3CCOCC3)C5)cc2Cl)n1` [Example 84, N-{3-chloro-4-[(6-methylpyridin-2-yl)methoxy]phenyl}-7-[(2E)-4-morpholin-4-ylbut-2-enoyl]-5,6,7,8-tetrahydropyrido [4′,3′:4,5]thieno[2,3-d]pyrimidin-4-amine]: the IC50 in the test on A431 cells was 1 to 10 µM; with N87, less than 0.2 µM; in the test with H1975 cells it was 1 to 10 µM.

As for `CN(C/C=C/C(=O)N1CCc2c(sc3ncnc(Nc4ccc5c(cnn5Cc5cccc(F)c5)c4)c23)C1)C(C)(C)C` [Example 124, 7-{(2E)-4-[tert-butyl(methyl)amino]but-2-enoyl}-N-[1-(3-fluorobenzyl)-1H-indazol-5-yl]-5,6,7,8-tetrahydropyrido [4′,3′:4,5]thieno[2,3-d]pyrimidin-4-amine], the IC50 in the test with A431 cells, in the test with N87 and in the test with H1975 cells was less than 0.2 µM each time.

By IC50 is commonly meant the concentration that inhibits the measured activity by half.
